The assay concerns C. neoformans H99. As to the kind of experiment: Checkerboard assay. In kind it is cell-based, Cryptococcus neoformans. As to the method:
Compounds were initially dissolved in DMSO and diluted in RPMI-1640-MOPS media four times the targeted final concentration and 50 μl was added per well. The second compound was similarly diluted and 50 μl was added per well, to a final volume of 100 μl/well. C. neoformans […] inoculum (100 μl) prepared from freshly grown cultures and diluted to an absorbance of 0.1 at 530 nm in water and further diluted (1:500) in RPMI-1640-MOPS was added to each well. To determine the fungicidal concentration of a compound, the wells with no visible growth were serially diluted, plated on SDA, and incubated at 30° C. for 48-72 h for the recovery of colony-forming units. Additionally, the cell density of treated and untreated wells was also estimated by reading absorbance at 630 nm using an EL808 reader (Bio-Tek). Percentage of inhibition compared to that of the no-drug-control well was calculated. […] Fractional inhibitory concentration (FIC) index value is calculated as the […]. The FIC index value is then used to categorize the interaction of the two compounds tested. […] Doern, C., “When Does 2 plus 2 Equal 5?A Review of Antimicrobial Synergy Testing,” Journal of Clinical Microbiology 52(12):4124-4128 (2014), which is hereby incorporated by reference in its entirety.

One may read the MIC as the least concentration at which growth counts as inhibited.

The structures appear in SMILES notation.

For the compound `O=C(Nc1ccc(F)cc1)c1nnsc1S(=O)(=O)c1ccc(Cl)cc1` [6G-318S, 5-[(4-chlorophenyl)sulfonyl]-N-(4-fluorophenyl)-1,2,3-thiadiazole-4-carboxamide], the MIC (Cryptococcus neoformans, H99, 48 h) stood at 1 µg/mL. Besides, the Effect entry was “Additive (>0.5 to 1 is additive)” (combination 6G-318S + 5-FC), “Synergistic (FIC index value of ≤0.5 is considered as synergy)” (combination 6G-318S + AmB), “Additive (>0.5 to 1 is additive)” (combination 6G-318S + IZ) and “Indifferent (>1 to 4 is indifferent)” (combination 6G-318S + Vor). The MIC-comb reads like this: (combination 6G-318S + 5-FC, well D6) 0.500 µg/mL; (combination 6G-318S + AmB, well F6) 0.125 µg/mL; (combination 6G-318S + IZ, well D6) 0.500 µg/mL; (combination 6G-318S + Vor, well G3) 0.063 µg/mL.
